This note sets out measurements from PMC8161687, “Cytosine-5 methylation-directed construction of a Au nanoparticle-based nanosensor for simultaneous detection of multiple DNA methyltransferases at the single-molecule level” (Chemical Science, 2020).

SMILES strings stand for the structures.

In this assay the target is T1, CpG methyltransferase (M.SssI MTase) (Spiroplasma monobiae, UniProt P15840).
T1 construct: gene sssIM
The assay is described as follows: coupled GlaI / RNase HII cleavage, Cy5 release from AuNP, single-molecule TIRF counting. The following applies: 600 nM hairpin DNA HS1; 320 μM SAM; 100 U/mL M.SssI; NEBuffer 2; 37 °C, 2 h; coupled assay; free nucleoside added, covalent mechanism only cited. Format: biochemical.

T1 sequence (P15840 whole entry): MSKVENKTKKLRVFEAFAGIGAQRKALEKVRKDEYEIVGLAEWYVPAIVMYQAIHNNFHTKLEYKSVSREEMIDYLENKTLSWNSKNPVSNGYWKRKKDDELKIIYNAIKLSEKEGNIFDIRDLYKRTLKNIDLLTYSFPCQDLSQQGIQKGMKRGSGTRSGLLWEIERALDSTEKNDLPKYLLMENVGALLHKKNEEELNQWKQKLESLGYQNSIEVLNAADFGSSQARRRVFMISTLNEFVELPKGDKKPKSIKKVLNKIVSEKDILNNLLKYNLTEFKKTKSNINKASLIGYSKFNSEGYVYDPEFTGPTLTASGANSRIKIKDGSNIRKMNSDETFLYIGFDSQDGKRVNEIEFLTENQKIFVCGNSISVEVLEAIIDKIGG

`Nc1ncn([C@H]2C[C@H](O)[C@@H](CO)O2)c(=O)n1` [decitabine] showed an IC50 of 640 nM.
